From patent US20240066027A1 (DOMAIN THERAPEUTICS, priority 2020, published 2024)
pIC50: −log10 of the molar value.

Target: T1, human PAR-2 (hPAR-2) receptor expressed in HEK-293 T cells in an endogenous manner (Homo sapiens, UniProt P55085)
T1 construct: human PAR-2 (hPAR-2) receptor expressed in HEK-293 T cells in an endogenous manner; endogenous in cells; host or cells: HEK-293 T cells
T1 sequence (P55085 26-397): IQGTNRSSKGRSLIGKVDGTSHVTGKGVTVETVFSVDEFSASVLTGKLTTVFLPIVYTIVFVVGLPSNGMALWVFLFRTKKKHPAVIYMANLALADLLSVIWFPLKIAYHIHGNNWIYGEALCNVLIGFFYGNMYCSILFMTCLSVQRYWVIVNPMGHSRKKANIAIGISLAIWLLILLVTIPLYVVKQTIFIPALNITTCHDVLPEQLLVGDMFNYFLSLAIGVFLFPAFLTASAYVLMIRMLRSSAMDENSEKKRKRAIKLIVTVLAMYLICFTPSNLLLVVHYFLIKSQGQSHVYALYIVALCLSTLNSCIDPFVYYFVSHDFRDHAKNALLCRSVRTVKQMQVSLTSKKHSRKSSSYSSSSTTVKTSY
Test: In vitro human PAR-2 functional antagonist activity using calcium assays (Fluo4AM, FLIPR Tetra)
Assay type: cell-based
Conditions: HEK-293 T cells stimulated by an EC80 of the 2-Furoyl-LIGRLO-NH2 peptide after 10 min incubation with compound; 20 concentrations, duplicate, two independent experiments
Experimental: In vitro human PAR-2 functional antagonist activity using calcium assays
Examples of the present invention were tested successively for their agonist and antagonist activities on human PAR-2 (hPAR-2) receptor expressed in HEK-293 T cells in an endogenous manner. Compounds exert agonist activity if, by themselves in absence of the 2-Furoyl-LIGRLO-NH2 peptide (selective hPAR-2 agonist), they activate PAR-2; they exert antagonist activity if they decrease the action of the 2-Furoyl-LIGRLO-NH2 peptide on the receptor. The assay used to determine compound activity is based on calcium measurement.
Cell Culture: HEK-293 T cells were maintained in Dulbecco's Modified Eagle's Medium supplemented with 10% Foetal Calf Serum, 1% Penicillin/Streptomycin at 37° C./5% CO2. Flasks for tests (F75) are seeded with 6e+06 cells 24 h before the experiment at 37° C./5% CO2.
Calcium assay: Receptor activity was detected by changes in intracellular calcium measured using the fluorescent Ca^2+ sensitive dye, Fluo4AM (Molecular Probes).
The day of the assay, medium was replaced by assay buffer (HBSS 1× (Gibco 14175-053), Hepes 20 mM, MgSO4-7H2O 1 mM, Na2CO3 3.3 mM, CaCl2-2H2O 1.3 mM, 0.5% BSA, Probenecid 2.5 mM, 0.1 mg/mL Pluronic Acid) and complemented with 1 μM Fluo4AM and cells were incubated during 1:30 h at 37° C.
Cells were then detached, resuspended in assay buffer and seeded in 384 wells, transparent-flat bottom black walled plates (2e+04 cells per well). Plates were incubated at +22° C. for 20 min. Compounds stock solutions were prepared in 100% DMSO and dilutions in test buffer were carried out in polypropylene plates with a digital dispenser (D300e, Tecan). Compounds were added to the cells and intracellular Ca^2+ measurements were collected at the same time on FLIPR Tetra® (Molecular Devices) with specific filters (Exc: 470-495 nm/Em: 515-575 nm).
Agonist and antagonist activities of compounds were consecutively evaluated on the same cell plate. Agonist activity was first measured after 10 min incubation with the compound alone. Then, cells were stimulated by an EC80 of the 2-Furoyl-LIGRLO-NH2 peptide and fluorescence was recorded for an additional 5 min. EC80 of the 2-Furoyl-LIGRLO-NH2 peptide was the concentration giving 80% of the maximal 2-Furoyl-LIGRLO-NH2 response. Agonist activities are evaluated in comparison to basal signals evoked by assay buffer or maximal 2-Furoyl-LIGRLO-NH2 response. […] Antagonist activities are evaluated in comparison to basal signals evoked by assay buffer or EC80 of 2-Furoyl-LIGRLO-NH2 alone.

Compound | pIC50
COc1ccc(Cn2cc(-c3ccc(Cl)c(F)c3)c3ccc(C(=O)N4CCNC(=O)C4(C)C)nc32)cc1 [Example 27, 4-(3-(4-chloro-3-fluorophenyl)-1-(4-methoxybenzyl)-1H-pyrrolo[2,3-b]pyridine-6-carbonyl)-3,3-dimethylpiperazin-2-one] | 5.00 to 7.70
O=C(c1ccc2c(-c3ccc(Cl)c(F)c3)cn(CC(F)(F)F)c2n1)N1CCCOCC1 [Example 32, (3-(4-chloro-3-fluorophenyl)-1-(2,2,2-trifluoroethyl)-1H-pyrrolo[2,3-b]pyridin-6-yl)(1,4-oxazepan-4-yl)methanone] | < 5.00
O=C(c1ccc2c(-c3ccc(Cl)c(F)c3)cn(CC(F)(F)F)c2n1)N1CC2CCC(C1)O2 [Example 33, (8-oxa-3-azabicyclo[3.2.1]octan-3-yl)(3-(4-chloro-3-fluorophenyl)-1-(2,2,2-trifluoroethyl)-1H-pyrrolo[2,3-b]pyridin-6-yl)methanone] | < 5.00
Cc1c(-c2ccc(Cl)c(F)c2)c2ccc(C(=O)N3CCNC(=O)C3(C)C)nc2n1CC(C)C [Example 38, 4-(3-(4-chloro-3-fluorophenyl)-1-isobutyl-2-methyl-1H-pyrrolo[2,3-b]pyridine-6-carbonyl)-3,3-dimethylpiperazin-2-one] | > 7.70
CC1(C)C(=O)NCCN1C(=O)c1ccc2c(-c3ccc(Cl)c(F)c3)cn(CCOCC(F)(F)F)c2n1 [Example 39, 4-(3-(4-chloro-3-fluorophenyl)-1-(2-(2,2,2-trifluoroethoxy)ethyl)-1H-pyrrolo[2,3-b]pyridine-6-carbonyl)-3,3-dimethylpiperazin-2-one] | 5.00 to 7.70
CC1(C)C(=O)NCCN1C(=O)c1ccc2c(-c3ccc(Cl)c(F)c3)cn(CCn3cncn3)c2n1 [Example 40, 4-(1-(2-(1H-1,2,4-triazol-1-yl)ethyl)-3-(4-chloro-3-fluorophenyl)-1H-pyrrolo[2,3-b]pyridine-6-carbonyl)-3,3-dimethylpiperazin-2-one] | 5.00 to 7.70
CC(C)Cn1cc(-c2cccc(Cl)c2)c2ccc(C(=O)N3CCNC(=O)C3(C)C)nc21 [Example 50, 4-[3-(3-chlorophenyl)-1-isobutyl-pyrrolo[2,3-b]pyridine-6-carbonyl]-3,3-dimethyl-piperazin-2-one] | 5.00 to 7.70
CC(C)Cn1cc(-c2ccccc2Cl)c2ccc(C(=O)N3CCNC(=O)C3(C)C)nc21 [Example 53, 4-[3-(2-chlorophenyl)-1-isobutyl-pyrrolo[2,3-b]pyridine-6-carbonyl]-3,3-dimethyl-piperazin-2-one] | 5.00 to 7.70
CC(C)Cn1cc(-c2ccc(Cl)cc2)c2ccc(C(=O)N3CCNC(=O)C3(C)C)nc21 [Example 54, 4-[3-(4-chlorophenyl)-1-isobutyl-pyrrolo[2,3-b]pyridine-6-carbonyl]-3,3-dimethyl-piperazin-2-one] | 5.00 to 7.70
COC(=O)c1c(C)cc(N2CCN(C(=O)c3ccc4c(n3)c(C(C)(C)C)nn4-c3ccc(Cl)c(F)c3)C(C)(C)C2)nc1C [Example 58, methyl 6-(4-(3-(tert-butyl)-1-(4-chloro-3-fluorophenyl)-1H-pyrazolo[4,3-b]pyridine-5-carbonyl)-3,3-dimethylpiperazin-1-yl)-2,4-dimethylnicotinate] | < 5.00
Cc1cc(N2CCN(C(=O)c3ccc4c(n3)c(C(C)(C)C)nn4-c3ccc(Cl)c(F)c3)C(C)(C)C2)nc(C)c1C(=O)O [Example 59, 6-(4-(3-(tert-butyl)-1-(4-chloro-3-fluorophenyl)-1H-pyrazolo[4,3-b]pyridine-5-carbonyl)-3,3-dimethylpiperazin-1-yl)-2,4-dimethylnicotinic acid] | > 7.70
CC1(C)C(=O)NCCN1C(=O)c1ccc2c(-c3ccc(Cl)c(F)c3)cn(CCn3cccn3)c2n1 [Example 61, 4-(1-(2-(1H-pyrazol-1-yl)ethyl)-3-(4-chloro-3-fluorophenyl)-1H-pyrrolo[2,3-b]pyridine-6-carbonyl)-3,3-dimethylpiperazin-2-one] | 5.00 to 7.70
CC(C)Cc1nn(-c2ccc(Cl)c(F)c2)c2ccc(C(=O)N3CCNC(=O)C3(C)C)nc12 [Example 62, 4-(1-(4-chloro-3-fluorophenyl)-3-isobutyl-1H-pyrazolo[4,3-b]pyridine-5-carbonyl)-3,3-dimethylpiperazin-2-one] | 5.00 to 7.70
CC(C)Cc1nn(-c2ccc(Cl)c(F)c2)c2ccc(C(=O)N3CCN(C)C(=O)C3)nc12 [Example 63, 4-(1-(4-chloro-3-fluorophenyl)-3-isobutyl-1H-pyrazolo[4,3-b]pyridine-5-carbonyl)-1-methylpiperazin-2-one] | < 5.00

The next lines start with the values.

pIC50 | Compound
5.00 to 7.70 | CC(C)(C)n1cc(-c2ccc(Cl)c(F)c2)c2ccc(C(=O)N3CCC4(CC3)NC(=O)NC4=O)nc21 [Example 24, 8-(1-(tert-butyl)-3-(4-chloro-3-fluorophenyl)-1H-pyrrolo[2,3-b]pyridine-6-carbonyl)-1,3,8-triazaspiro[4.5]decane-2,4-dione]
> 7.70 | Cc1cc(N2CCN(C(=O)c3ccc4c(-c5ccc(Cl)c(F)c5)cn(C(C)(C)C)c4n3)C(C)(C)C2)nc(C)c1C(=O)O [Example 26, 6-(4-(1-(tert-butyl)-3-(4-chloro-3-fluorophenyl)-1H-pyrrolo[2,3-b]pyridine-6-carbonyl)-3,3-dimethylpiperazin-1-yl)-2,4-dimethylnicotinic acid]
> 7.70 | COC1CC(n2cc(-c3ccc(Cl)c(F)c3)c3ccc(C(=O)N4CCNC(=O)C4(C)C)nc32)C1 (stereo not drawn) [Example 28, 4-(3-(4-chloro-3-fluorophenyl)-1-(3-methoxycyclobutyl)-1H-pyrrolo[2,3-b]pyridine-6-carbonyl)-3,3-dimethylpiperazin-2-one]
> 7.70 | CC(C)Cn1cc(-c2ccc(Cl)c(F)c2)c2ccc(C(=O)N3CCNC(=O)C3(C)C)nc21 [Example 29, 4-(3-(4-chloro-3-fluorophenyl)-1-isobutyl-1H-pyrrolo[2,3-b]pyridine-6-carbonyl)-3,3-dimethylpiperazin-2-one]
5.00 to 7.70 | CC1(C)C(=O)NCCN1C(=O)c1ccc2c(-c3ccc(Cl)c(F)c3)cn(C3CCOCC3)c2n1 [Example 30, 4-(3-(4-chloro-3-fluorophenyl)-1-(tetrahydro-2H-pyran-4-yl)-1H-pyrrolo[2,3-b]pyridine-6-carbonyl)-3,3-dimethylpiperazin-2-one]
5.00 to 7.70 | CC1(C)C(=O)NCCN1C(=O)c1ccc2c(-c3ccc(Cl)c(F)c3)cn(CC(F)(F)F)c2n1 [Example 31, 4-(3-(4-chloro-3-fluorophenyl)-1-(2,2,2-trifluoroethyl)-1H-pyrrolo[2,3-b]pyridine-6-carbonyl)-3,3-dimethylpiperazin-2-one]
5.00 to 7.70 | Cn1cc(-c2ccc(Cl)c(F)c2)c2ccc(C(=O)N3CCNC(=O)C3(C)C)nc21 [Example 34, 4-(3-(4-chloro-3-fluorophenyl)-1-methyl-1H-pyrrolo[2,3-b]pyridine-6-carbonyl)-3,3-dimethylpiperazin-2-one]
> 7.70 | CC1(C)C(=O)NCCN1C(=O)c1ccc2c(-c3ccc(Cl)c(F)c3)cn(CC3CC3)c2n1 [Example 35, 4-(3-(4-chloro-3-fluorophenyl)-1-(cyclopropylmethyl)-1H-pyrrolo[2,3-b]pyridine-6-carbonyl)-3,3-dimethylpiperazin-2-one]
5.00 to 7.70 | CC1(C)C(=O)NCCN1C(=O)c1ccc2c(-c3ccc(Cl)c(F)c3)cn(CCN3CCCC3=O)c2n1 [Example 41, 4-(3-(4-chloro-3-fluorophenyl)-1-(2-(2-oxopyrrolidin-1-yl)ethyl)-1H-pyrrolo[2,3-b]pyridine-6-carbonyl)-3,3-dimethylpiperazin-2-one]
5.00 to 7.70 | CCOCCn1cc(-c2ccc(Cl)c(F)c2)c2ccc(C(=O)N3CCNC(=O)C3(C)C)nc21 [Example 42, 4-(3-(4-chloro-3-fluorophenyl)-1-(2-ethoxyethyl)-1H-pyrrolo[2,3-b]pyridine-6-carbonyl)-3,3-dimethylpiperazin-2-one]
